Here are results for 1 substance from patent publication US20200384161A1, “COMPOSITE ANTI-RESTENOSIS DRUG FOR CORONARY DRUG-ELUTING STENT AND CONTROLLED RELEASE SYSTEM THEREOF” (XINXIN MEDICAL TECHNOLOGY (SHANGHAI) CO. LTD, priority 2017, published 2020).

In data set [1] the test system is primary endothelial cells of porcine coronary vessels. The data set is described as follows: In vitro effect of arsenic trioxide on primary porcine coronary endothelial cells (total cell number). The format is cell-based. The text has this: (§1) FIGS. 1 and 2 show the effects of arsenic trioxide on primary smooth muscle cells and primary endothelial cells of porcine coronary vessels in in vitro experiments. In the figures, the vertical axis represents the total number of cells in the wells of the culture plate, and the horizontal axis represents the concentration of the arsenic trioxide solution. Each curve represents the effect of arsenic trioxide at various concentrations on apoptosis (decrease in total number of cells) at a given time. […] However, for smooth muscle cells, cells apoptosis began even at low concentrations (3 μM) from Day 2 (FIG. 1). […] Arsenic trioxide may induce apoptosis of smooth muscle cells while having poor inhibitory effect on endothelial cells or even promoting their growth.

The test system of another data set is VSMCs. The conditions noted are these: Li Hui et al. 2010; cited from earlier work.
Data set [2] deals with primary smooth muscle cells of porcine coronary vessels. Description: In vitro effect of arsenic trioxide on primary porcine coronary vascular smooth muscle cells (total cell number). It is filed as cell-based.
Excerpt: as §1

The conditions of data set [3]: cited from earlier work.

With arsenic trioxide, in data set [1], the “pro-apoptotic effect on endothelial cells” value is on record as “not obvious”. In addition, in data set [1] (FIG. 2), the “proliferation of endothelial cells” value was “promoting proliferation of endothelial cell to a certain extent”. In data set [1] (at a concentration of 12 μM or below (FIG. 2)), the “effect on endothelial cells” value is reported as “little effect”. In addition, in data set [1] (first to the third day upon drug action), the “effect on endothelial cell growth” value is listed as “stimulation of growth”. For the same substance, in the data set on VSMCs, the “mitochondrial transmembrane potential (Δψm)” value is reported as “could induce a decrease of mitochondrial transmembrane potential”. Further, the “concentration of arsenic trioxide at which smooth muscle cell apoptosis began” value in data set [2] (from Day 2, decrease in total number of cells (FIG. 1)) came out at 3 µM. Further, the “pro-apoptotic effect on smooth muscle cells” value in data set [2] (when it reaches a certain dose) was “strong pro-apoptotic effect”. In addition, the “solubility in common solvents” value in data set [3] (common (organic) solvents such as ethanol) is listed as “cannot be dissolved”. In data set [3] (only one crystal form out of three), the solubility in water result is “slightly soluble”.
